# According to PubChem BioAssay AID1919016 (Molecular Pharmacology Branch, DTP, NCI, 2023):
# Tested on: NCI-H196 complex spheroid growth, percent test/control
# Experiment: Anticancer human tumor NCI-H196 cell line growth inhibition [AhR];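 note: seven days of drug exposure starting three days after plating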;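 for viability, T/C: 100% = DMSO vehicle control wells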
# Conditions: for IC50: curve of first compound; for viability, T/C: stronger effect = lower value
# Method in brief: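 Spheroids combined tumor cells with HUVEC endothelial cells and human MSCs as stroma. AhR antagonists were paired with standard or investigational drugs, each dosed in half-log steps down from near clinical Cmax, or from 10 microM where Cmax was unknown.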
# [1] = second compound 0.1 µM, first compound 0.0316 µM
# [2] = second compound 0.1 µM, first compound 0.1 µM
# [3] = second compound 0.1 µM, first compound 0.316 µM
# [4] = second compound 0.1 µM, first compound 1 µM
# [5] = second compound 0.1 µM, first compound 3.16 µM
# [6] = second compound 0.1 µM, first compound 10 µM
# [7] = second compound 0.316 µM, first compound 0.0316 µM
# [8] = second compound 0.316 µM, first compound 0.1 µM
# [9] = second compound 0.316 µM, first compound 0.316 µM
# [10] = second compound 0.316 µM, first compound 1 µM
# [11] = second compound 0.316 µM, first compound 3.16 µM
# [12] = second compound 0.316 µM, first compound 10 µM
# [13] = second compound 1 µM, first compound 0.0316 µM
# [14] = second compound 1 µM, first compound 0.1 µM
# [15] = second compound 1 µM, first compound 0.316 µM
# [16] = second compound 1 µM, first compound 1 µM
# [17] = second compound 1 µM, first compound 3.16 µM
# [18] = second compound 1 µM, first compound 10 µM
# [19] = second compound 3.16 µM, first compound 0.0316 µM
# [20] = second compound 3.16 µM, first compound 0.1 µM
# [21] = second compound 3.16 µM, first compound 0.316 µM
# [22] = second compound 3.16 µM, first compound 1 µM
# [23] = second compound 3.16 µM, first compound 3.16 µM
# [24] = second compound 3.16 µM, first compound 10 µM
# [25] = second compound 10 µM, first compound 0.0316 µM
# [26] = second compound 10 µM, first compound 0.1 µM
# [27] = second compound 10 µM, first compound 0.316 µM
# [28] = second compound 10 µM, first compound 1 µM
# [29] = second compound 10 µM, first compound 3.16 µM
# [30] = second compound 10 µM, first compound 10 µM
# [31] = second compound 0.1 µM, first compound 0.00949 µM
# [32] = second compound 0.1 µM, first compound 0.03 µM
# [33] = second compound 0.1 µM, first compound 0.0949 µM
# [34] = second compound 0.1 µM, first compound 0.3 µM
# [35] = second compound 0.316 µM, first compound 0.00949 µM
# [36] = second compound 0.316 µM, first compound 0.03 µM
# [37] = second compound 0.316 µM, first compound 0.0949 µM
# [38] = second compound 0.316 µM, first compound 0.3 µM
# [39] = second compound 1 µM, first compound 0.00949 µM
# [40] = second compound 1 µM, first compound 0.03 µM
# [41] = second compound 1 µM, first compound 0.0949 µM
# [42] = second compound 1 µM, first compound 0.3 µM
# [43] = second compound 3.16 µM, first compound 0.00949 µM
# [44] = second compound 3.16 µM, first compound 0.03 µM
# [45] = second compound 3.16 µM, first compound 0.0949 µM
# [46] = second compound 3.16 µM, first compound 0.3 µM
# [47] = second compound 10 µM, first compound 0.00949 µM
# [48] = second compound 10 µM, first compound 0.03 µM
# [49] = second compound 10 µM, first compound 0.0949 µM
# [50] = second compound 10 µM, first compound 0.3 µM
compound,measurement,setting,value
CC1(C)CCC(CN2CCN(c3ccc(C(=O)NS(=O)(=O)c4ccc(NCC5CCOCC5)c([N+](=O)[O-])c4)c(Oc4cnc5[nH]ccc5c4)c3)CC2)=C(c2ccc(Cl)cc2)C1 + Cc1ccccc1N=Nc1ccc(NC(=O)c2ccnn2C)c(C)c1,IC50,second compound 0.1 µM,> 10 µM
same,IC50,second compound 0.316 µM,> 10 µM
same,IC50,second compound 1 µM,> 10 µM
same,IC50,second compound 3.16 µM,> 10 µM
same,IC50,second compound 10 µM,> 10 µM
same,"viability, T/C",[1],111%
same,"viability, T/C",[2],109%
same,"viability, T/C",[3],109%
same,"viability, T/C",[4],97%
same,"viability, T/C",[5],115%
same,"viability, T/C",[6],66%
same,"viability, T/C",[7],101%
same,"viability, T/C",[8],106%
same,"viability, T/C",[9],99.9%
same,"viability, T/C",[10],102%
same,"viability, T/C",[11],108%
same,"viability, T/C",[12],74.9%
same,"viability, T/C",[13],100%
same,"viability, T/C",[14],107%
same,"viability, T/C",[15],108%
same,"viability, T/C",[16],102%
same,"viability, T/C",[17],102%
same,"viability, T/C",[18],75.5%
same,"viability, T/C",[19],104%
same,"viability, T/C",[20],111%
same,"viability, T/C",[21],107%
same,"viability, T/C",[22],104%
same,"viability, T/C",[23],104%
same,"viability, T/C",[24],67.2%
same,"viability, T/C",[25],95.6%
same,"viability, T/C",[26],99.2%
same,"viability, T/C",[27],100%
same,"viability, T/C",[28],99.8%
same,"viability, T/C",[29],100%
same,"viability, T/C",[30],74.6%
CC1COCCN1c1cc(C2(S(C)(=N)=O)CC2)nc(-c2ccnc3[nH]ccc23)n1 (stereo not given) + Cc1ccccc1N=Nc1ccc(NC(=O)c2ccnn2C)c(C)c1,IC50,second compound 0.1 µM,> 10 µM
same,IC50,second compound 0.316 µM,> 10 µM
same,IC50,second compound 1 µM,> 10 µM
same,IC50,second compound 3.16 µM,> 10 µM
same,IC50,second compound 10 µM,> 10 µM
same,"viability, T/C",[1],98.5%
same,"viability, T/C",[2],101%
same,"viability, T/C",[3],98.8%
same,"viability, T/C",[4],101%
same,"viability, T/C",[5],81.5%
same,"viability, T/C",[6],69.7%
same,"viability, T/C",[7],99.3%
same,"viability, T/C",[8],102%
same,"viability, T/C",[9],99.2%
same,"viability, T/C",[10],92.5%
same,"viability, T/C",[11],80.5%
same,"viability, T/C",[12],72.6%
same,"viability, T/C",[13],96.3%
same,"viability, T/C",[14],104%
same,"viability, T/C",[15],101%
same,"viability, T/C",[16],94%
same,"viability, T/C",[17],87.7%
same,"viability, T/C",[18],70%
same,"viability, T/C",[19],96.2%
same,"viability, T/C",[20],99.1%
same,"viability, T/C",[21],97.4%
same,"viability, T/C",[22],88.6%
same,"viability, T/C",[23],81.8%
same,"viability, T/C",[24],74%
same,"viability, T/C",[25],85.7%
same,"viability, T/C",[26],93.1%
same,"viability, T/C",[27],101%
same,"viability, T/C",[28],89.7%
same,"viability, T/C",[29],78.3%
same,"viability, T/C",[30],76.6%
CCN(c1cc(-c2ccc(CN3CCOCC3)cc2)cc(C(=O)NCc2c(C)cc(C)[nH]c2=O)c1C)C1CCOCC1 + Cc1ccccc1N=Nc1ccc(NC(=O)c2ccnn2C)c(C)c1,IC50,second compound 0.1 µM,> 3 µM
same,IC50,second compound 0.316 µM,> 3 µM
same,IC50,second compound 1 µM,> 3 µM
same,IC50,second compound 3.16 µM,> 3 µM
same,IC50,second compound 10 µM,> 3 µM
same,"viability, T/C",[31],95%
same,"viability, T/C",[32],104%
same,"viability, T/C",[33],103%
same,"viability, T/C",[34],104%
same,"viability, T/C","second compound 0.1 µM, first compound 0.949 µM",90.2%
same,"viability, T/C","second compound 0.1 µM, first compound 3 µM",89.6%
same,"viability, T/C",[35],104%
same,"viability, T/C",[36],99.2%
same,"viability, T/C",[37],102%
same,"viability, T/C",[38],97.3%
same,"viability, T/C","second compound 0.316 µM, first compound 0.949 µM",94.7%
same,"viability, T/C","second compound 0.316 µM, first compound 3 µM",96.3%
same,"viability, T/C",[39],98.6%
same,"viability, T/C",[40],98.1%
same,"viability, T/C",[41],111%
same,"viability, T/C",[42],103%
same,"viability, T/C","second compound 1 µM, first compound 0.949 µM",101%
same,"viability, T/C","second compound 1 µM, first compound 3 µM",107%
same,"viability, T/C",[43],93%
same,"viability, T/C",[44],103%
same,"viability, T/C",[45],105%
same,"viability, T/C",[46],98.1%
same,"viability, T/C","second compound 3.16 µM, first compound 0.949 µM",93.2%
same,"viability, T/C","second compound 3.16 µM, first compound 3 µM",96.3%
same,"viability, T/C",[47],89.9%
same,"viability, T/C",[48],97.8%
same,"viability, T/C",[49],92.9%
same,"viability, T/C",[50],89.7%
same,"viability, T/C","second compound 10 µM, first compound 0.949 µM",90.1%
same,"viability, T/C","second compound 10 µM, first compound 3 µM",102%
Nc1ncn(C2CC(O)C(CO)S2)c(=O)n1 (stereo not given) + Cc1ccccc1N=Nc1ccc(NC(=O)c2ccnn2C)c(C)c1,IC50,second compound 0.1 µM,> 0.3 µM
same,IC50,second compound 0.316 µM,> 0.3 µM
same,IC50,second compound 1 µM,> 0.3 µM
same,IC50,second compound 3.16 µM,> 0.3 µM
same,IC50,second compound 10 µM,> 0.3 µM
same,"viability, T/C","second compound 0.1 µM, first compound 0.000949 µM",95%
same,"viability, T/C","second compound 0.1 µM, first compound 0.003 µM",93.4%
same,"viability, T/C",[31],99.1%
same,"viability, T/C",[32],96.8%
same,"viability, T/C",[33],102%
same,"viability, T/C",[34],101%
same,"viability, T/C","second compound 0.316 µM, first compound 0.000949 µM",105%
same,"viability, T/C","second compound 0.316 µM, first compound 0.003 µM",96.2%
same,"viability, T/C",[35],104%
same,"viability, T/C",[36],96%
same,"viability, T/C",[37],101%
same,"viability, T/C",[38],95.4%
same,"viability, T/C","second compound 1 µM, first compound 0.000949 µM",97.6%
same,"viability, T/C","second compound 1 µM, first compound 0.003 µM",89.9%
same,"viability, T/C",[39],97.9%
same,"viability, T/C",[40],87.3%
same,"viability, T/C",[41],91%
same,"viability, T/C",[42],104%
same,"viability, T/C","second compound 3.16 µM, first compound 0.000949 µM",89.3%
same,"viability, T/C","second compound 3.16 µM, first compound 0.003 µM",102%
same,"viability, T/C",[43],100%
same,"viability, T/C",[44],93.7%
same,"viability, T/C",[45],97.7%
same,"viability, T/C",[46],99.5%
same,"viability, T/C","second compound 10 µM, first compound 0.000949 µM",85.1%
same,"viability, T/C","second compound 10 µM, first compound 0.003 µM",82.4%
same,"viability, T/C",[47],86.2%
same,"viability, T/C",[48],86.2%
same,"viability, T/C",[49],90.5%
same,"viability, T/C",[50],92.1%
